Data reported in patent US20150231045A1, “ANTI-DANDRUFF COMPOSITION COMPRISING 1-ACETOXYCHAVICOL ACETATE” (AnalytiCon Discovery GmbH, priority 2012, published 2015).
Values after ≈ are worked out from the molar mass of the structure shown.

How the values were obtained:
[1] = tested on: Malassezia sympodialis ATCC 42132; experiment: Mid-log assay (compound added at half-maximum OD580); type: cell-based, Malassezia sympodialis (former M. furfur); settings: Example 7; for inhibition at 12.5 µg/mL: Malassezia sympodialis, ATCC42132, read-out: Mid-log Assay %-inhibition compared to benchmark
Procedure: Cells are cultivated to half-maximal OD580 before test compounds are added (arrow). Value of OD580 at time of sample application is set 100%. […] Blue diamonds, untreated control cells; pink rectangles, cells treated with test compounds.
(§1) General Assay Conditions • 1. Strain: Malassezia sympodialis ATCC 42132 • 2. Growth conditions: • Sabouraud-medium supplemented with dextrose (20 g/l), Tween 80 (1%) and glycerol-monostearat (emulsifier; 0.05%). Static incubation in flat-bottom 96-well microtiterplates (total volume 340 μl, working volume 200 μl; surface area 148 mm2). Incubation at 33° C. in humid atmosphere (wet-box) to avoid dessication. Incubation periods vary according to the assay format. Suspensions used for inoculation were adjusted to an optical density (OD580) of 0.1 • 3. […] Controls • Sterile media was used as negative control; cells cultivated in absence of any test compound but in presence of equal amounts of DMSO compared to samples (see below) were regarded as positive control (unrestricted growth) • 5. All compounds (test-samples and references) are dissolved in DMSO. […] Unless otherwise stated, test compound concentration was 12.5 μg/ml
For the so called “mid-log assay”, cells are grown to half-maximum optical density before test compounds are added. […] Numbers for OD580 of untreated control samples and samples treated with test compounds are compared to t0-value, which is defined as the 100% level. The value for OD580 of the untreated control sample in stationary phase (end of experiment) is defined as the “control-level” (for unrestricted growth). Values for control-levels are solely dependent on t0-values and therefore vary with each experiment; thus, they cannot be standardised.
Exponentially growing cells (mid-log) are in a defined active state with respect to proliferation and metabolic activity. […] Moreover, the mode of inhibition caused by the test compound can be determined (see above).

[2] = tested on: Malassezia sympodialis ATCC 42132; experiment: Classic assay for susceptibility testing of planktonically growing cells (OD580); type: cell-based, Malassezia sympodialis (former M. furfur); settings: for inhibition at 12.5 µg/mL: read-out: Classic Assay, planktonic growth, inhibition
Procedure: Routine cultivation of M. sympodialis: M. sympodialis (former M. furfur) CBS 1878 was obtained from the Centraalbureau voor Schimmelcultures Fungal Biodiversity Centre. It was routinely grown on Dixon-agar plates in a humid atmosphere (“wet box”) at 33° C., or in Sabouraud-Maltose (SM) broth complemented with Tween80 and Glycerin-monostearate for liquid cultures in shake-flasks (300 ml operated with 50 ml medium) with agitation (150 rpm).
as §1
Routine susceptibility testing of M. sympodialis in high throughput format was done by simultaneous addition of test compounds and inoculum. Seven days after inoculation and when planktonic growth of the untreated control ceased, the effect of the test compounds was evaluated by comparison of the turbidity (optical density, OD580) of treated and untreated samples (control; 100%).
The classic assay is the platform to determine dose-response relationships, where serial dilutions of compounds are evaluated. For description of these relationships, values for the minimal effective concentration and the concentration effective in reducing cell proliferation by 50% (IC50) are generated.

[3] = 12.5 μg/ml unless otherwise stated
[4] = Malassezia sympodialis, ATCC42132, Example 7, 12.5 μg/ml unless otherwise stated

Row | IC50 ([2]; Malassezia sympodialis, ATCC42132, serial dilutions, classic assay, read-out: IC50 (concentration reducing cell proliferation by 50%), planktonic growth) [µg/mL] | Molecule | Mid-log Assay Level-% ([1]; OD580 at addition = 100%, Control-level 399) [%] | inhibition at 12.5 µg/mL [1, 3] [%] | inhibition at 12.5 µg/mL [2, 4] [%] | Mid-log Assay %-inhibition compared to benchmark [1, 3] [%] | Classic Assay, planktonic growth, inhibition ([2]; Example 7, 12.5 μg/ml unless otherwise stated) [% inhibition] | IC50 (concentration reducing cell proliferation by 50%), planktonic growth ([2]; serial dilutions, classic assay) [µg/mL]
1 | – | C=CC(OC(C)=O)c1ccc(OC(C)=O)cc1 (stereo not drawn) [1-acetoxychavicol, 1-acetoxychavicol acetate] | 379 | 11 | 61 | – | – | –
2 | – | Zinc Pyrithione | – | – | – | 16 | 73 | 12.4
3 | 0.2 (≈ 0.683 µM) | CC(C)(C)C(=O)C(Oc1ccc(Cl)cc1)n1ccnc1 (stereo not drawn) [Crinipan, climbazole] | – | 66 | 93 | – | – | –
